Experiments:
Type in all cases: cell-based
human TLR8 = target: T1, human TLR8 (Homo sapiens, UniProt Q9NR97); test: TLR8 inhibition reporter assay (HEK-Blue cells, SEAP reporter, R848 stimulation); conditions: HEK-Blue cells overexpressing human TLR8, SEAP reporter, R848 15.9 μM
T1 construct: host or cells: HEK-Blue cells (HEK293-derived reporter line)
T1 sequence (Q9NR97 27-1041): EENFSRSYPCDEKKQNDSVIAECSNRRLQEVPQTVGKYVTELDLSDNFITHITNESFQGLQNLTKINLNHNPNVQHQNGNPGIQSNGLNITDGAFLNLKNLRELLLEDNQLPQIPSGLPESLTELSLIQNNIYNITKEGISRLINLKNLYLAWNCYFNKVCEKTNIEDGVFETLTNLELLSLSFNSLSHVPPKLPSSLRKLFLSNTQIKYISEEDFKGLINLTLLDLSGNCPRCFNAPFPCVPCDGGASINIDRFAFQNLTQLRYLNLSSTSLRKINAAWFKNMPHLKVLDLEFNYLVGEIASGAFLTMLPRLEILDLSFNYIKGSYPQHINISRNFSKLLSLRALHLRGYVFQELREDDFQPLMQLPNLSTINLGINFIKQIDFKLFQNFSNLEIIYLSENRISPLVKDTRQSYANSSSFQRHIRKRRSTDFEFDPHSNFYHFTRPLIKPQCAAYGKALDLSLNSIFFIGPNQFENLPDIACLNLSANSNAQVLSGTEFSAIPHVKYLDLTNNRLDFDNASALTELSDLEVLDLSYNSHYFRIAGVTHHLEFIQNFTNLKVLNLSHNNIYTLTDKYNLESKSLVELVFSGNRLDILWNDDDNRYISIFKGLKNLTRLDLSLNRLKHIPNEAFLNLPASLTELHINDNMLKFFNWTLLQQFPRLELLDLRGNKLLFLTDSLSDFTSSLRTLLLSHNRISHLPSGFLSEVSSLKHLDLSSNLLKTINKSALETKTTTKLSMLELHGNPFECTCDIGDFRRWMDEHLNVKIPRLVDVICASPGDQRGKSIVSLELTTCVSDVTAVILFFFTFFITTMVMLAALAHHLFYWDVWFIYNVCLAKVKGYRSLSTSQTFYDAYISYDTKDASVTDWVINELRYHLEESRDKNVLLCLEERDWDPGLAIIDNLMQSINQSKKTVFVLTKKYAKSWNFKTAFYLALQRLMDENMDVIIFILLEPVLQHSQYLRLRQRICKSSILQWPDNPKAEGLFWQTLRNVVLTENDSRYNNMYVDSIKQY
Summary of the method: (§1)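 Agonists (final): TLR7 gardiquimod 7.5 μM; TLR8 R848 15.9 μM; TLR9 ODN2006 5 nM. HEK-Blue reporter cells, 30 min RT compound pre-incubation, 0.05 nM–50 μM dose range, 22 h at 37 °C, colorimetric SEAP detection medium. % inhibition relative to agonist+DMSO and known-inhibitor wells.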

human TLR9 = target: T2, human TLR9 (Homo sapiens, UniProt Q9NR96); test: TLR9 inhibition reporter assay (HEK-Blue cells, SEAP reporter, ODN2006 stimulation); conditions: HEK-Blue cells overexpressing human TLR9, SEAP reporter, ODN2006 5 nM
T2 construct: host or cells: HEK-Blue cells (HEK293-derived reporter line)
T2 sequence (Q9NR96 26-1032): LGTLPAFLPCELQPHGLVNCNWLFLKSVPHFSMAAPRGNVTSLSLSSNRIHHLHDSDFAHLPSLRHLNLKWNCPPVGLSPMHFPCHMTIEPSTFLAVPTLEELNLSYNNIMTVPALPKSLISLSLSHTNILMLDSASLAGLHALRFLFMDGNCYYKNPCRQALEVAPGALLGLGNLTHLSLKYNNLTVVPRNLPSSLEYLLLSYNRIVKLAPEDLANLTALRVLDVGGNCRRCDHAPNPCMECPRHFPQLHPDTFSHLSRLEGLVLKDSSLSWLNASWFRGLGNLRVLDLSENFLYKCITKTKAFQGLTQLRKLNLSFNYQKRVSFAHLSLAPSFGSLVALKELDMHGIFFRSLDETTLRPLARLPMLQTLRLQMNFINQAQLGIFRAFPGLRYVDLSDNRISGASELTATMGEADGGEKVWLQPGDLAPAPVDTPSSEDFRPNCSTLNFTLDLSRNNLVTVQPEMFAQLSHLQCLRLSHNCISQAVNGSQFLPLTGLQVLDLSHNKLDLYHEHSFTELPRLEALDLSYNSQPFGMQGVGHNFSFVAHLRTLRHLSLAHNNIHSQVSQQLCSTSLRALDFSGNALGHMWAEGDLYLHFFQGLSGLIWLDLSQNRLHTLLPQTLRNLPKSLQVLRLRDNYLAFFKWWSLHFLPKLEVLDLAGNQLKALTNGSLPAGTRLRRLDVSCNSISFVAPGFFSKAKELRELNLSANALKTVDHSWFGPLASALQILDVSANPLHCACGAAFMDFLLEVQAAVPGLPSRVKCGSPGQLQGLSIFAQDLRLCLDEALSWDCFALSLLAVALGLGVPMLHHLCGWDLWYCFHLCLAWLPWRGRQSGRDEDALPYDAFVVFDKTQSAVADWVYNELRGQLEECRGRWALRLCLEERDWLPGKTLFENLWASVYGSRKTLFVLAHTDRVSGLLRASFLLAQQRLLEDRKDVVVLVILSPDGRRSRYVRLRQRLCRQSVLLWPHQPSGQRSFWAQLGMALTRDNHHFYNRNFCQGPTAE
Summary of the method: as §1

human TLR7 = target: T3, human TLR7 (Homo sapiens, UniProt Q9NYK1); test: TLR7 inhibition reporter assay (HEK-Blue cells, SEAP reporter, gardiquimod stimulation); conditions: HEK-Blue cells overexpressing human TLR7, SEAP reporter, gardiquimod 7.5 μM
T3 construct: host or cells: HEK-Blue cells (HEK293-derived reporter line)
T3 sequence (Q9NYK1 27-1049): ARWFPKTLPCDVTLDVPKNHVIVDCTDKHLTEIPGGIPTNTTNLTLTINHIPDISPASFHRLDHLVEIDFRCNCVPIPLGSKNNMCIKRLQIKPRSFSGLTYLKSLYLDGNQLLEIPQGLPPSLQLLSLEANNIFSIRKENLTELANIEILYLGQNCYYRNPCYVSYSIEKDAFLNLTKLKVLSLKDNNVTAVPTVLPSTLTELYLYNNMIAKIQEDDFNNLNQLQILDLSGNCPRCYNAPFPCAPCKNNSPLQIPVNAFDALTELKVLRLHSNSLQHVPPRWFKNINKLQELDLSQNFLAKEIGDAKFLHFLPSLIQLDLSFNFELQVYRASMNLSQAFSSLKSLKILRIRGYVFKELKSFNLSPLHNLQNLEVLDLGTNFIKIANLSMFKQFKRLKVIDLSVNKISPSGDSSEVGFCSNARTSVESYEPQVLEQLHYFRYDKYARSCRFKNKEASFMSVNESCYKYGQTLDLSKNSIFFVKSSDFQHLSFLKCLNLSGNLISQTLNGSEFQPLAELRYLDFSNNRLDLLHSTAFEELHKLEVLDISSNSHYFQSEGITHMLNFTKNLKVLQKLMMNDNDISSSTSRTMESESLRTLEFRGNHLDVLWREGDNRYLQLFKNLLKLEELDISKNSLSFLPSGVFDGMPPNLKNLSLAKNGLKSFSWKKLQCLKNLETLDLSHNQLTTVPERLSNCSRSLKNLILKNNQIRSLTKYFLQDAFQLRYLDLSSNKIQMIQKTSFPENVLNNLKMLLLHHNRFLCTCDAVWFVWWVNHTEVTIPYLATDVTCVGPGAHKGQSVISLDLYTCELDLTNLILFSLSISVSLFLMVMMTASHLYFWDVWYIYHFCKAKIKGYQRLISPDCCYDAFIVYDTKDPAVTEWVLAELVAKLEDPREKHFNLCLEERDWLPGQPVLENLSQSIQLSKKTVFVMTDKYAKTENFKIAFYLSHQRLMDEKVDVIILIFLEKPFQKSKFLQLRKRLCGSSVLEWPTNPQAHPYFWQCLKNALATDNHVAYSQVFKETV
Summary of the method: as §1

Structure (SMILES)	IC50 (human TLR8)	IC50 (human TLR9)	IC50 (human TLR7)
Cc1cc2cc(-c3[nH]c4ccc(C5CCN(CC(C)(C)O)CC5)cc4c3C(C)C)cc(CC(C)C)n2n1 [Example 770, 1-(4-(2-(7-isobutyl-2-methylpyrazolo[1,5-a]pyridin-5-yl)-3-isopropyl-1H-indol-5-yl)piperidin-1-yl)-2-methylpropan-2-ol]	> 3.13 µM	1 to 50 µM	> 3.13 µM
Cc1cc(-c2[nH]c3ccc(C4CCNCC4)cc3c2C(C)C)c2[nH]c(C)cc2n1 [Example 40, 7-(3-isopropyl-5-(piperidin-4-yl)-1H-indol-2-yl)-2,5-dimethyl-1H-pyrrolo[3,2-b]pyridine]	1 to 50 µM	0.1 to 1 µM	1 to 50 µM
Cc1cn2cc(-c3[nH]c4ccc(C5CCN(C(=O)CC(C)(C)O)CC5)cc4c3C(C)C)c(C)cc2n1 [Example 597, 1-(4-(2-(2,7-dimethylimidazo[1,2-a]pyridin-6-yl)-3-isopropyl-1H-indol-5-yl)piperidin-1-yl)-3-hydroxy-3-methylbutan-1-one]	> 3.13 µM	1 to 50 µM	0.1 to 1 µM
CC(C)c1c(-c2cnc3[nH]nc(N)c3c2)[nH]c2ccc(C3CCNCC3)cc12 [Example 99, 5-(3-isopropyl-5-(piperidin-4-yl)-1H-indol-2-yl)-1H-pyrazolo[3,4-b]pyridin-3-amine]	0.1 to 1 µM	1 to 50 µM	0.1 to 1 µM
CC(C)c1c(-c2ccnc3[nH]ncc23)[nH]c2ccc(C3CCN(Cc4ccc(N5CCOCC5)cc4)CC3)cc12 [Example 912, 4-(4-((4-(3-isopropyl-2-(1H-pyrazolo[3,4-b]pyridin-4-yl)-1H-indol-5-yl)piperidin-1-yl)methyl)phenyl)morpholine]	< 0.1 µM	0.1 to 1 µM	< 0.1 µM
Cc1cc2cc(-c3[nH]c4ccc(C5CCN(CC(=O)N(C)C)CC5)cc4c3C(C)C)cc(CC(C)C)n2n1 [Example 393, 2-(4-(2-(7-isobutyl-2-methylpyrazolo[1,5-a]pyridin-5-yl)-3-isopropyl-1H-indol-5-yl)piperidin-1-yl)-N,N-dimethylacetamide]	> 3.13 µM	1 to 50 µM	> 3.13 µM
CC(C)c1c(-c2ccnc3[nH]ncc23)[nH]c2cc(F)c(C3CCN(CC4CCNC4)CC3)cc12 (stereo not drawn) [Example 853, 4-(6-fluoro-3-isopropyl-5-(1-(pyrrolidin-3-ylmethyl)piperidin-4-yl)-1H-indol-2-yl)-1H-pyrazolo[3,4-b]pyridine]	< 0.1 µM	< 0.1 µM	< 0.1 µM
CC(C)c1c(-c2ccc3nccn3c2)[nH]c2ccc(C3CCN(Cc4c[nH]cn4)CC3)cc12 [Example 940, 6-(5-(1-((1H-imidazol-4-yl)methyl)piperidin-4-yl)-3-isopropyl-1H-indol-2-yl)imidazo[1,2-a]pyridine]	< 0.1 µM	< 0.1 µM	< 0.1 µM
CCc1c(-c2ccnc3[nH]ncc23)[nH]c2ccc(C3CCN(Cc4ncco4)CC3)cc12 [Example 867, 2-((4-(3-ethyl-2-(1H-pyrazolo[3,4-b]pyridin-4-yl)-1H-indol-5-yl)piperidin-1-yl)methyl)oxazole]	0.1 to 1 µM	1 to 50 µM	0.1 to 1 µM
CC(C)c1c(-c2cc(Cl)c3ncccc3c2)[nH]c2ccc(C3CCN(C(=O)CN(C)C)CC3)cc12 [Example 512, 1-(4-(2-(8-chloroquinolin-6-yl)-3-isopropyl-1H-indol-5-yl)piperidin-1-yl)-2-(dimethylamino)ethan-1-one]	< 0.1 µM	1 to 50 µM	< 0.1 µM
COc1cc(-c2[nH]c3ccc(C4CCN(Cc5cnn[nH]5)CC4)cc3c2C(C)C)nn2ncnc12 [Example 860, 6-(5-(1-((1H-1,2,3-triazol-5-yl)methyl)piperidin-4-yl)-3-isopropyl-1H-indol-2-yl)-8-methoxy-[1,2,4]triazolo[1,5-b]pyridazine]	< 0.1 µM	1 to 50 µM	< 0.1 µM
CC(C)c1c(-c2ccnc3[nH]ncc23)[nH]c2ccc(C3CCN(Cc4c[nH]cn4)CC3)cc12 [Example 870, 4-(5-(1-((1H-imidazol-4-yl)methyl)piperidin-4-yl)-3-isopropyl-1H-indol-2-yl)-1H-pyrazolo[3,4-b]pyridine]	< 0.1 µM	0.1 to 1 µM	< 0.1 µM
Cc1cn2cc(-c3[nH]c4ccc(C5CCN(C(=O)CC(C)O)CC5)cc4c3C(C)C)c(C)cc2n1 (stereo not drawn) [Example 596, 1-(4-(2-(2,7-dimethylimidazo[1,2-a]pyridin-6-yl)-3-isopropyl-1H-indol-5-yl)piperidin-1-yl)-3-hydroxybutan-1-one]	> 3.13 µM	1 to 50 µM	< 0.1 µM
CC(C)c1c(-c2ccc3nccn3c2)[nH]c2ccc(C3CCN(C4CCN(C(C)C)CC4)CC3)cc12 [Example 803, 6-(3-isopropyl-5-(1′-isopropyl-[1,4′-bipiperidin]-4-yl)-1H-indol-2-yl)imidazo[1,2-a]pyridine]	< 0.1 µM	0.1 to 1 µM	< 0.1 µM

Reference: patent US11739098B2 (BRISTOL-MYERS SQUIBB COMPANY, priority 2017, dated 2023)
